{"source": "patent US20230212131A1", "about": "“COLLAGEN 1 TRANSLATION INHIBITORS AND METHODS OF USE THEREOF” (Anima Biotech Inc., priority 2020, published 2023)", "data": [{"system": "collagen 1 (COL1)", "assay": "WI-38 collagen 1 inhibition assay", "assay_type": "cell-based, human", "settings": "Cellular EC50, WI-38 cells; values are classes of LogEC50", "description": "All compounds were profiled for cellular potency in inhibition of collagen 1 (COL1) protein translation using a phenotypic screening platform.\nWI-38 cells (ATCC® CCL-75™) were maintained in MEM EAGLE (NEAA) W. GLUTAMIN (Biological Industries, Cat. 06-1040-15-1A) containing 10% fetal bovine serum (FBS) and 1% Penicillin-Streptomycin Solution. To synchronize the cells (cell cycle synchronization) prior to induction of collagen synthesis, the cells were starved using DMEM-low glucose supplemented with 0.25% FBS for two hours and then without FBS for 24 hours. To induce collagen synthesis, the cells were treated with a collagen induction cocktail for the indicated time. Compounds were added with induction.\nCells in 96-well or 384-well plates were fixed for 20 min in 4% paraformaldehyde (PFA, ENCO, Cat. sc-281692). Following two washes with 1×PBS, cells were treated with hydrogen peroxide (Acros, Cat: 7722-84-1) for 10 minutes and then washed twice with 1×PBS. Cells were then incubated over-night at 4° C. with Anti-Collagen I (Sigma-Aldrich, Cat: C 2456) antibody and washed three times with 1×PBS. Cells were then incubated with a suitable secondary fluorescently-tagged antibody and nuclei stained with DAPI, for 1 hour, and then washed 3 times with 1×PBS.\nCell images were taken with Operetta (Perkin Elmer, USA), a wide-field fluorescence microscope at 20× magnification. After acquisition, the images were transferred to Columbus software (Perkin-Elmer) for image analysis. In Columbus, cells were identified by their nucleus, using the “Find Nuceli” module and cytoplasm was detected based on the secondary antibody channel. Subsequently, the fluorescent signal was enumerated in the identified cell region. Data was exported to a data analysis and visualization software, Tibco Spotfire, USA.", "values": [{"smiles": "CS(=O)(=O)N1CCN(C2CCC(C(=O)Nc3nc(-c4ccccc4Cl)cs3)CC2)CC1", "note": "(single isomer, unassigned) [Compound 434, (1s,4s)-N-(4-(2-chlorophenyl)thiazol-2-yl)-4-(4-(methylsulfonyl)piperazin-1-yl)cyclohexane-1-carboxamide]", "COL1 Efficacy (LogEC50)": "+ (+: >−5)"}, {"smiles": "CS(=O)(=O)N1CCN(C2CCC(C(=O)Nc3nc(-c4ccccc4Cl)cs3)CC2)CC1", "note": "(single isomer, unassigned) [Compound 435, (1r,4r)-N-(4-(2-chlorophenyl)thiazol-2-yl)-4-(4-(methylsulfonyl)piperazin-1-yl)cyclohexane-1-carboxamide]", "COL1 Efficacy (LogEC50)": "++ (++: −5 to −6)"}, {"smiles": "COc1ccc(C(=O)Nc2nc(-c3ccc(Cl)cc3Cl)cs2)cc1", "note": "[Compound 300, N-(4-(2,4-dichlorophenyl)thiazol-2-yl)-4-methoxybenzamide]", "COL1 Efficacy (LogEC50)": "++ (++: −5 to −6)"}, {"smiles": "COc1ccc(C(=O)Nc2nc(-c3ccc(C)cc3C)cs2)cc1", "note": "[Compound 301, N-(4-(2,4-dimethylphenyl)thiazol-2-yl)-4-methoxybenzamide]", "COL1 Efficacy (LogEC50)": "+++ (+++: <−6)"}, {"smiles": "O=C(Nc1nc(-c2ccc(Cl)cc2Cl)cs1)c1ccccc1", "note": "[Compound 302, N-(4-(2,4-dichlorophenyl)thiazol-2-yl)benzamide]", "COL1 Efficacy (LogEC50)": "++ (++: −5 to −6)"}, {"smiles": "O=C(Nc1nc(-c2ccc(Cl)cc2Cl)cs1)c1ccc(Cl)cc1", "note": "[Compound 303, 4-chloro-N-(4-(2,4-dichlorophenyl)thiazol-2-yl)benzamide]", "COL1 Efficacy (LogEC50)": "+ (+: >−5)"}, {"smiles": "COc1ccc(C(=O)Nc2nc(-c3ccccc3Cl)cs2)cc1", "note": "[Compound 304, N-(4-(2-chlorophenyl)thiazol-2-yl)-4-methoxybenzamide]", "COL1 Efficacy (LogEC50)": "+++ (+++: <−6)"}, {"smiles": "COc1ccc(C(=O)Nc2nc(-c3cc(C)cc(C)c3)cs2)cc1", "note": "[Compound 305, N-(4-(3,5-dimethylphenyl)thiazol-2-yl)-4-methoxybenzamide]", "COL1 Efficacy (LogEC50)": "++ (++: −5 to −6)"}, {"smiles": "O=C(Nc1nc(-c2ccc(Cl)cc2Cl)cs1)C1CCOCC1", "note": "[Compound 306, N-(4-(2,4-dichlorophenyl)thiazol-2-yl)tetrahydro-2H-pyran-4-carboxamide]", "COL1 Efficacy (LogEC50)": "++ (++: −5 to −6)"}, {"smiles": "Cc1ccc(C(=O)Nc2nc(-c3ccc(Cl)cc3Cl)cs2)cc1", "note": "[Compound 307, N-(4-(2,4-dichlorophenyl)thiazol-2-yl)-4-methylbenzamide]", "COL1 Efficacy (LogEC50)": "+++ (+++: <−6)"}, {"smiles": "O=C(Nc1nc(-c2ccc(Cl)cc2Cl)cs1)c1ccc(F)cc1", "note": "[Compound 308, N-(4-(2,4-dichlorophenyl)thiazol-2-yl)-4-fluorobenzamide]", "COL1 Efficacy (LogEC50)": "++ (++: −5 to −6)"}, {"smiles": "COc1ccc(C(=O)Nc2nc(-c3cc(Cl)cc(Cl)c3)cs2)cc1", "note": "[Compound 315, N-(4-(3,5-dichlorophenyl)thiazol-2-yl)-4-methoxybenzamide]", "COL1 Efficacy (LogEC50)": "+++ (+++: <−6)"}, {"smiles": "COc1ccc(C(=O)Nc2nc(-c3cccnc3)cs2)cc1", "note": "[Compound 316, 4-methoxy-N-[4-(3-pyridyl)thiazol-2-yl]benzamide]", "COL1 Efficacy (LogEC50)": "++ (++: −5 to −6)"}, {"smiles": "Cc1ccc(C(=O)Nc2nc(-c3cnn(C)c3)cs2)cn1", "note": "[Compound 317, 6-methyl-N-[4-(1-methylpyrazol-4-yl)thiazol-2-yl]pyridine-3-carboxamide]", "COL1 Efficacy (LogEC50)": "+ (+: >−5)"}, {"smiles": "COc1ncccc1-c1csc(NC(=O)c2ccc(C)nc2)n1", "note": "[Compound 319, N-[4-(2-methoxy-3-pyridyl)thiazol-2-yl]-6-methyl-pyridine-3-carboxamide]", "COL1 Efficacy (LogEC50)": "++ (++: −5 to −6)"}, {"smiles": "COc1ccc(C(=O)Nc2nc(-c3ccc(F)cc3Cl)cs2)cc1", "note": "[Compound 321, N-[4-(2-chloro-4-fluoro-phenyl)thiazol-2-yl]-4-methoxy-benzamide]", "COL1 Efficacy (LogEC50)": "+++ (+++: <−6)"}, {"smiles": "Cc1ccc(C(=O)Nc2nc(-c3cccnc3)cs2)cn1", "note": "[Compound 323, 6-methyl-N-[4-(3-pyridyl)thiazol-2-yl]pyridine-3-carboxamide]", "COL1 Efficacy (LogEC50)": "+ (+: >−5)"}, {"smiles": "COc1ccc(C(=O)Nc2nc(-c3ccc(F)cc3F)cs2)cc1", "note": "[Compound 325, N-[4-(2,4-difluorophenyl)thiazol-2-yl]-4-methoxy-benzamide]", "COL1 Efficacy (LogEC50)": "+++ (+++: <−6)"}, {"smiles": "COc1ccc(C(=O)Nc2nc(-c3cnccc3OC)cs2)cc1", "note": "[Compound 326, 4-methoxy-N-[4-(4-methoxy-3-pyridyl)thiazol-2-yl]benzamide]", "COL1 Efficacy (LogEC50)": "++ (++: −5 to −6)"}, {"smiles": "COCCOc1ccccc1-c1csc(NC(=O)c2ccc(OC)cc2)n1", "note": "[Compound 328, 4-methoxy-N-[4-[2-(2-methoxyethoxy)phenyl]thiazol-2-yl]benzamide]", "COL1 Efficacy (LogEC50)": "++ (++: −5 to −6)"}, {"smiles": "COc1ccc(C(=O)Nc2nc(-c3cnn(C)c3)cs2)cc1", "note": "[Compound 331, 4-methoxy-N-[4-(1-methylpyrazol-4-yl)thiazol-2-yl]benzamide]", "COL1 Efficacy (LogEC50)": "+ (+: >−5)"}, {"smiles": "COc1ccc(C(=O)Nc2nc(-c3cccnc3OC)cs2)cc1", "note": "[Compound 332, 4-methoxy-N-[4-(2-methoxy-3-pyridyl)thiazol-2-yl]benzamide]", "COL1 Efficacy (LogEC50)": "++ (++: −5 to −6)"}, {"smiles": "COc1ccc(C(=O)Nc2nc(-c3cnccc3C)cs2)cc1", "note": "[Compound 333, 4-methoxy-N-[4-(4-methyl-3-pyridyl)thiazol-2-yl]benzamide]", "COL1 Efficacy (LogEC50)": "++ (++: −5 to −6)"}, {"smiles": "O=C(Nc1nc(-c2ccccc2Cl)cs1)c1ccc(N2CCNCC2)cc1", "note": "[Compound 334, N-(4-(2-chlorophenyl)thiazol-2-yl)-4-(piperazin-1-yl)benzamide]", "COL1 Efficacy (LogEC50)": "+++ (+++: <−6)"}, {"smiles": "COc1ccc(C(=O)Nc2nc(-c3cncnc3C)cs2)cc1", "note": "[Compound 335, 4-methoxy-N-[4-(4-methylpyrimidin-5-yl)thiazol-2-yl]benzamide]", "COL1 Efficacy (LogEC50)": "+ (+: >−5)"}, {"smiles": "COc1ccc(C(=O)Nc2nc(-c3ccccc3F)cs2)cc1", "note": "[Compound 336, N-[4-(2-fluorophenyl)thiazol-2-yl]-4-methoxy-benzamide]", "COL1 Efficacy (LogEC50)": "++ (++: −5 to −6)"}, {"smiles": "COc1ccc(C(=O)Nc2nc(-c3cccc4c3OCCO4)cs2)cc1", "note": "[Compound 337, N-[4-(2,3-dihydro-1,4-benzodioxin-5-yl)thiazol-2-yl]-4-methoxy-benzamide]", "COL1 Efficacy (LogEC50)": "++ (++: −5 to −6)"}, {"smiles": "COc1ccc(C(=O)Nc2nc(-c3cncnc3)cs2)cc1", "note": "[Compound 338, 4-methoxy-N-(4-pyrimidin-5-ylthiazol-2-yl)benzamide]", "COL1 Efficacy (LogEC50)": "+ (+: >−5)"}, {"smiles": "Cc1ccc(C(=O)Nc2nc(-c3cncnc3)cs2)cn1", "note": "[Compound 340, 6-methyl-N-(4-pyrimidin-5-ylthiazol-2-yl)pyridine-3-carboxamide]", "COL1 Efficacy (LogEC50)": "+++ (+++: <−6)"}, {"smiles": "COCCOc1ccccc1-c1csc(NC(=O)c2ccc(C)nc2)n1", "note": "[Compound 341, N-[4-[2-(2-methoxyethoxy)phenyl]thiazol-2-yl]-6-methyl-pyridine-3-carboxamide]", "COL1 Efficacy (LogEC50)": "++ (++: −5 to −6)"}, {"smiles": "Cc1ccc(C(=O)Nc2nc(-c3cccc4c3OCCO4)cs2)cn1", "note": "[Compound 342, N-[4-(2,3-dihydro-1,4-benzodioxin-5-yl)thiazol-2-yl]-6-methyl-pyridine-3-carboxamide]", "COL1 Efficacy (LogEC50)": "++ (++: −5 to −6)"}, {"smiles": "COc1ccc(C(=O)Nc2nc(-c3cccnc3C)cs2)cc1", "note": "[Compound 343, 4-methoxy-N-[4-(2-methyl-3-pyridyl)thiazol-2-yl]benzamide]", "COL1 Efficacy (LogEC50)": "+++ (+++: <−6)"}]}]}
